# Patent US10064885B2, “Metabolic gene, enzyme, and flux targets for cancer therapy” (Massachusetts Institute of Technology, priority 2010, dated 2018)
# Assays:
# Type in all cases: cell-based, human
# [1] = system: A549 cells; test: Reductive glutamine metabolism by isotopic labeling and GC/MS in A549 cells expressing shRNAs
# Procedure: (§1) Cell Culture, Isotopic Labeling, and Hypoxia. All cell lines were cultured in Dulbecco's Modified Eagle Medium (DMEM; Mediatech) containing 10% fetal bovine serum (FBS; Invitrogen) and 100 U/ml penicillin/streptomycin (P/S; Mediatech) unless otherwise mentioned. Cell lines were obtained from ATCC unless otherwise noted. The VC3 glioma cell line was provided by Tim Lautenschlaeger (Ohio State University), MDA-MB-231 and HCT116 cell lines were provided by Ferdinando Chiaradonna (University of Milano-Bicocca), MRC5 cells were provided by Stephen Lippard (MIT), SN12C, ACHN, and 786-O cells were provided by Kevin Courtney and Lew Cantley (Harvard Medical School), and MCF10A cells were provided by Joan Brugge (Harvard Medical School), and Huh7 cells were provided by Mike Hemann (MIT). MCF10A cells were cultured in custom DMEM/F12 (Hyclone) containing 5% horse serum, 20 ng/ml EGF, 10 μg/ml insulin, 100 ng/ml cholera toxin, 0.5 mg/ml hydrocortisone, 100 U/ml penicillin/streptomycin, and labeled/unlabeled glucose and glutamine at 18 mM and 2.5 mM, respectively. PRC3, WT8, pTV, and pTR cell lines were subcloned from the 786-O cell line as previously described (42, 43). For isotopic labeling experiments, cells were cultured in 6 well plates in glucose- and glutamine-free DMEM (Sigma) containing 10% dialyzed FBS (Invitrogen), 100 U/ml P/S, naturally labeled glucose or glutamine, and the appropriate tracer, including [U-^13C5]glutamine (Isotec), [5-^13C]glutamine (C/D/N Isotopes), [1-^13C]glutamine, [U-^13C6]glucose, [1,2-^13C2]glucose (all from Cambridge Isotope Labs). Steady state labeling of organic and amino acids was accomplished by culturing subconfluent cells in tracer medium for 24 hours. […] The internal gas content was monitored using Fyrite gas analyzers (Bacharach) for CO2 and O2. […]
# (§2) Metabolite Extraction and Gas Chromatography/Mass Spectrometry (GC/MS) Analysis. […] In some ISA experiments, cells were trypsinized, counted, and pelleted prior to lipid extraction as described above. […]
# [2] = system: 143B osteosarcoma; test: Reductive carboxylation by [1-13C]glutamine labeling and GC/MS in 143B cells expressing shRNAs
# Procedure: as §1, with “respectively.” for “respectively. PRC3, WT8, pTV, and pTR cell lines were subcloned from the 786-O cell line as previously described (42, 43). For isotopic labeling experiments, cells were cultured in 6 well plates in glucose- and glutamine-free DMEM (Sigma) containing 10% dialyzed FBS (Invitrogen), 100 U/ml P/S, naturally labeled glucose or glutamine, and the appropriate tracer, including [U-^13C5]glutamine (Isotec), [5-^13C]glutamine (C/D/N Isotopes), [1-^13C]glutamine, [U-^13C6]glucose, [1,2-^13C2]glucose (all from Cambridge Isotope Labs). Steady state labeling of organic and amino acids was accomplished by culturing subconfluent cells in tracer medium for 24 hours.”
# as §2
# [3] = system: A549 cells; test: 13C Metabolic Flux Analysis (MFA) of A549 cells expressing IDH1-targeting shRNAs, [U-13C5]glutamine tracer
# Procedure: Cell Culture, Isotopic Labeling, and Hypoxia. All cell lines were cultured in Dulbecco's Modified Eagle Medium (DMEM; Mediatech) containing 10% fetal bovine serum (FBS; Invitrogen) and 100 U/ml penicillin/streptomycin (P/S; Mediatech) unless otherwise mentioned. Cell lines were obtained from ATCC unless otherwise noted. The VC3 glioma cell line was provided by Tim Lautenschlaeger (Ohio State University), MDA-MB-231 and HCT116 cell lines were provided by Ferdinando Chiaradonna (University of Milano-Bicocca), MRC5 cells were provided by Stephen Lippard (MIT), SN12C, ACHN, and 786-O cells were provided by Kevin Courtney and Lew Cantley (Harvard Medical School), and MCF10A cells were provided by Joan Brugge (Harvard Medical School), and Huh7 cells were provided by Mike Hemann (MIT). MCF10A cells were cultured in custom DMEM/F12 (Hyclone) containing 5% horse serum, 20 ng/ml EGF, 10 μg/ml insulin, 100 ng/ml cholera toxin, 0.5 mg/ml hydrocortisone, 100 U/ml penicillin/streptomycin, and labeled/unlabeled glucose and glutamine at 18 mM and 2.5 mM, respectively. PRC3, WT8, pTV, and pTR cell lines were subcloned from the 786-O cell line as previously described (42, 43). For isotopic labeling experiments, cells were cultured in 6 well plates in glucose- and glutamine-free DMEM (Sigma) containing 10% dialyzed FBS (Invitrogen), 100 U/ml P/S, naturally labeled glucose or glutamine, and the appropriate tracer, including [U-^13C5]glutamine (Isotec), [5-^13C]glutamine (C/D/N Isotopes), [1-^13C]glutamine, [U-^13C6]glucose, [1,2-^13C2]glucose (all from Cambridge Isotope Labs). Steady state labeling of organic and amino acids was accomplished by culturing subconfluent cells in tracer medium for 24 hours. Labeling of fatty acids for Isotopomer Spectral Analysis (USA) was conducted over 3-5 days of culture in an excess of tracer medium (3-4 ml/well in a 6 well plate) to prevent nutrient depletion. Hypoxic culture was conducted by feeding a custom mixture of 1% O2, 5% CO2, and 94% N2 to a standard incubator controlled at 5% CO2. HEPES (Mediatech) was added to the culture medium at 20 mM to maintain pH between normoxic and hypoxic cultures. The internal gas content was monitored using Fyrite gas analyzers (Bacharach) for CO2 and O2. O2 levels were confirmed at 1.5-2% during hypoxic culture.
# Stable cell cultures with decreased IDH1 and IDH2 expression were generated via lentiviral-mediated shRNA expression. pLKO.1 lentiviral vectors targeting IDH1 with shRNA sequences of […] TT (IDH1a; TRCN0000027298; SEQ ID NO:1) and […] TT (IDH1b; TRCN0000027289; SEQ ID NO:2), IDH2 with shRNA sequence […] TT (TRCN0000027225; SEQ ID NO:3). For controls, either non-targeting control shRNA (SHC002; Sigma) or pLKO.1 scrambled control vector (44)(Addgene) were used. pLKO.1 vector targeting ARNT with shRNA sequence […] TT (TRCN0000003819; SEQ ID NO:4) was obtained from Open Biosystems.
# HEK293T cells were co-transfected with pLKO.1 vectors and packaging plasmids to produce lentivirus. Filtered supernatants were used for infection, and cells were selected with puromycin (2 μg/ml) for at least two passages before initiating tracer and flux experiments.
# Metabolite Extraction and Gas Chromatography/Mass Spectrometry (GC/MS) Analysis. At the conclusion of culture, cells were rinsed with 1 ml ice cold PBS and quenched with 0.4 ml ice cold methanol. An equal volume of water was added, and cells were collected in tubes by scraping with a pipette. One volume of ice cold chloroform was added to each tube, and the extracts were vortexed at 4° C. for 30 minutes. Samples were centrifuged at 14,000 g for 5 minutes at room temperature. For analysis of polar metabolites, the aqueous phase was transferred to a new tube for evaporation under airflow. For ISA experiments, the non-polar fraction was collected and evaporated under airflow. In some ISA experiments, cells were trypsinized, counted, and pelleted prior to lipid extraction as described above. […]
# [4] = system: MDA-MB-231 breast carcinoma; test: Reductive carboxylation by [1-13C]glutamine labeling and GC/MS in MDA-MB-231 cells expressing shRNAs
# Procedure: as §1, §2
# [5] = system: HCT116 colon carcinoma; test: Reductive carboxylation by [1-13C]glutamine labeling and GC/MS in HCT116 cells expressing shRNAs
# Procedure: as §1, §2
# [6] = system: Hypoxia response element- (HRE-) driven reporter; test: Hypoxia response element (HRE)-driven reporter in HCT116 cells expressing IDH1-targeting shRNAs; settings: normal culture, hypoxia, or 1 mM DMOG, 18 hours
# Procedure: Luciferase Assays. Subconfluent cells in 6 well plates were co-transfected with 1 μg of a firefly luciferase vector and 50 ng Renilla luciferase vector (pRL-TK; Promega) using Fugene 6 reagent. The ODD-Luciferase and Luciferase vectors were obtained from Addgene and based off of the pcDNA3.1 vector (49). Hypoxia responsive element-luciferase (HRE-Luc) vectors were used as described (50). Approximately 24 hours after transfection, medium was changed and cells were placed under normoxia, hypoxia, or treated with 1 mM dimethyloxalylglycine (DMOG). After 18 hours of treatment, cells were lysed and luciferase activity was determined using the Dual Luciferase Reporter Assay system (Promega) according to the manufacturer's instructions.
# [7] = Anaplerotic reactions, exchange flux
# [8] = Anaplerotic reactions, net flux
# [9] = Pentose Phosphate Pathway, exchange flux
# [10] = Pentose Phosphate Pathway, net flux
sequence,measurement,setting,value
"CCGGGCTGCTTGCATTAAAGGTTTACTCGAGTAAACCTTTAATGCAAGCAGCTTT TT (CCGGGCTGCTTGCATTAAAGGTTTACTCGAGTAAACCTTTAATGCAAGCAGCTTTTT; expressed or natural sequence) [IDH1a, pLKO.1 lentiviral vector shRNA targeting IDH1]",M3 mass isotopomers derived from [U-13C5]glutamine (reductive carboxylation),"[1]; [U-13C5]glutamine, aspartate, malate, fumarate",decrease in reductive carboxylation
same,reductive carboxylation flux,[2],reduces reductive carboxylation flux
same,Flux Pyr.m <−> Ala,"[3]; Amino acids, exchange flux",0.00 fmol/cell*hr
same,Flux Gln −> Glu,"[3]; Amino acids, net flux",22.97 fmol/cell*hr
same,Flux Gln.x −> Gln,"[3]; Amino acids, net flux",23.47 fmol/cell*hr
same,Flux Glu −> Glu.x,"[3]; Amino acids, net flux",18.56 fmol/cell*hr
same,Flux Pyr.m −> Ala,"[3]; Amino acids, net flux",0.42 fmol/cell*hr
same,Flux Glu <−> Akg,[3]; [7],499.30 fmol/cell*hr
same,Flux Mal <−> Pyr.m + CO2,[3]; [7],0.00 fmol/cell*hr
same,Flux Oac <−> Asp,[3]; [7],0.01 fmol/cell*hr
same,Flux Glu −> Akg,[3]; [8],3.90 fmol/cell*hr
same,Flux Mal −> Pyr.m + CO2,[3]; [8],5.44 fmol/cell*hr
same,Flux Oac −> Asp,[3]; [8],0.61 fmol/cell*hr
same,Flux Pyr.m + CO2 −> Oac,[3]; [8],2.14 fmol/cell*hr
same,Flux 0.6*Asp + 0.5*Glu + 0.42*Ala + 0.5*Gln −> Biomass,"[3]; Biomass, net flux",1.01 fmol/cell*hr
same,Flux AcCoA.c −> Fatty acids,"[3]; Biomass, net flux",10.65 fmol/cell*hr
same,Flux Cit −> AcCoA.c + Oac,"[3]; Biomass, net flux",10.65 fmol/cell*hr
same,Flux P5P −> NTP,"[3]; Biomass, net flux",0.50 fmol/cell*hr
same,Flux 0*Pyr.c −> Pyr.mnt,[3]; Dilution/Mixing,1.00 fmol/cell*hr
same,Flux 0*Pyr.m −> Pyr.mnt,[3]; Dilution/Mixing,0.00 fmol/cell*hr
same,Flux 0*Suc −> Suc.mnt,[3]; Dilution/Mixing,0.24 fmol/cell*hr
same,Flux Suc.d −> Suc.mnt,[3]; Dilution/Mixing,0.76 fmol/cell*hr
same,Flux Pyr.c <−> Pyr.m,"[3]; Dilution/Mixing, exchange flux",82.77 fmol/cell*hr
same,Flux Pyr.c −> Pyr.m,"[3]; Dilution/Mixing, net flux",11.79 fmol/cell*hr
same,Flux DHAP <−> GAP,"[3]; Glycolysis, exchange flux",566.90 fmol/cell*hr
same,Flux G6P <−> F6P,"[3]; Glycolysis, exchange flux",3.2E+04 fmol/cell*hr
same,Flux GAP <−> 3PG,"[3]; Glycolysis, exchange flux",1.7E+08 fmol/cell*hr
same,Flux Pyr.c <−> Lac,"[3]; Glycolysis, exchange flux",706.50 fmol/cell*hr
same,Flux 3PG −> Pyr.c,"[3]; Glycolysis, net flux",186.40 fmol/cell*hr
same,Flux DHAP −> GAP,"[3]; Glycolysis, net flux",91.96 fmol/cell*hr
same,Flux F6P −> DHAP + GAP,"[3]; Glycolysis, net flux",91.96 fmol/cell*hr
same,Flux G6P −> F6P,"[3]; Glycolysis, net flux",86.95 fmol/cell*hr
same,Flux GAP −> 3PG,"[3]; Glycolysis, net flux",186.40 fmol/cell*hr
same,Flux Glc.x −> G6P,"[3]; Glycolysis, net flux",94.96 fmol/cell*hr
same,Flux Lac −> Lac.x,"[3]; Glycolysis, net flux",174.60 fmol/cell*hr
same,Flux Pyr.c −> Lac,"[3]; Glycolysis, net flux",174.60 fmol/cell*hr
same,Flux P5P + E4P <−> F6P + GAP,[3]; [9],1.76 fmol/cell*hr
same,Flux P5P + P5P <−> S7P + GAP,[3]; [9],3.0E+04 fmol/cell*hr
same,Flux S7P + GAP <−> F6P + E4P,[3]; [9],1.9E+05 fmol/cell*hr
same,Flux G6P −> P5P + CO2,[3]; [10],8.01 fmol/cell*hr
same,Flux P5P + E4P −> F6P + GAP,[3]; [10],2.50 fmol/cell*hr
same,Flux P5P + P5P −> S7P + GAP,[3]; [10],2.50 fmol/cell*hr
same,Flux S7P + GAP −> F6P + E4P,[3]; [10],2.50 fmol/cell*hr
same,Flux Fum <−> Mal,"[3]; TCA Cycle, exchange flux",1.1E+06 fmol/cell*hr
same,Flux Mal <−> Oac,"[3]; TCA Cycle, exchange flux",98.66 fmol/cell*hr
same,Flux Suc <−> Fum,"[3]; TCA Cycle, exchange flux",0.00 fmol/cell*hr
same,Flux Cit <−> Akg + CO2,"[3]; TCA Cycle, exchange flux (reductive IDH flux)",1.88 fmol/cell*hr
same,Flux AcCoA.m + Oac −> Cit,"[3]; TCA Cycle, net flux",14.66 fmol/cell*hr
same,Flux Akg −> Suc + CO2,"[3]; TCA Cycle, net flux",7.91 fmol/cell*hr
same,Flux Fum −> Mal,"[3]; TCA Cycle, net flux",7.91 fmol/cell*hr
same,Flux Mal −> Oac,"[3]; TCA Cycle, net flux",2.48 fmol/cell*hr
same,Flux Pyr.m −> AcCoA.m + CO2,"[3]; TCA Cycle, net flux",14.66 fmol/cell*hr
same,Flux Suc −> Fum,"[3]; TCA Cycle, net flux",7.91 fmol/cell*hr
same,Flux Cit −> Akg + CO2,"[3]; TCA Cycle, net flux (IDH)",4.01 fmol/cell*hr
same,reductive carboxylation flux (M1 label from [1-13C]glutamine),[4],reduces reductive carboxylation flux
same,reductive carboxylation flux (M1 label from [1-13C]glutamine),[5],reduces reductive carboxylation flux
same,HRE-driven reporter levels (hypoxia signaling),[6],does not increase hypoxia signaling and stabilization
"CCGGGTGGACATCCAGCTAAAGTATCTCGAGATACTTTAGCTGGATGTCCACTTT TT (CCGGGTGGACATCCAGCTAAAGTATCTCGAGATACTTTAGCTGGATGTCCACTTTTT; expressed or natural sequence) [IDH2 shRNA, pLKO.1 lentiviral vector shRNA targeting IDH2]",reductive carboxylation (M1 label from [1-13C]glutamine),[1]; [1-13C]glutamine,does not affect reductive carboxylation flux
same,reductive carboxylation flux (M1 label from [1-13C]glutamine),[4],does not affect reductive carboxylation flux
same,reductive carboxylation flux (M1 label from [1-13C]glutamine),[5],does not affect reductive carboxylation flux
